# Results reported in ChEMBL document CHEMBL5137002, “A Comprehensive Biological and Synthetic Perspective on 2-Deoxy-d-Glucose (2-DG), A Sweet Molecule with Therapeutic and Diagnostic Potentials” (J Med Chem, 2022).
# Columns and labels:
# [1] = test system: SARS-CoV-2; assay: Antiviral activity against SARS-CoV-2 B.6 in African green monkey Vero E6 cells assessed as inhibition of virus multiplication; type: functional, organism-based; details: Severe acute respiratory syndrome coronavirus 2, B.6, Vero C1008
# [2] = test system: SARS-CoV-2; assay: Antiviral activity against SARS-CoV-2 B.1.1.7 in African green monkey Vero E6 cells assessed as inhibition of virus multiplication; type: functional, organism-based; details: Severe acute respiratory syndrome coronavirus 2, B.1.1.7, Vero C1008
# [3] = test system: SARS-CoV-2; assay: Antiviral activity against SARS-CoV-2 in African green monkey Vero E6 cells assessed as inhibition of virus multiplication at 1 mM; type: functional; details: Severe acute respiratory syndrome coronavirus 2, Vero C1008
# [4] = test system: SARS-CoV-2; assay: Antiviral activity against SARS-CoV-2 in African green monkey Vero cells assessed as inhibition of virus multiplication in presence of extracellular glucose; type: functional, Severe acute respiratory syndrome coronavirus 2
# [5] = test system: Saccharomyces cerevisiae; assay: Inhibition of yeast hexokinase assessed as Km
# [6] = Drug uptake in tumor of rat measured per gram of tissue at 1 hr; type: ADME, tissue-based, Neoplasm; details: in vivo
# [7] = Ratio of tumor to blood biodistribution in rat after 60 mins; type: ADME, organism-based; details: tumor and blood
# [8] = Competitive inhibition of yeast hexokinase; design: species or system Saccharomyces cerevisiae
# [9] = Competitive inhibition of rat brain hexokinase
# [10] = test system: U-87 MG; assay: Growth inhibition of human U87 cells under hypoxic condition; type: functional, cell-based, U-87MG ATCC
# [11] = test system: U-87 MG; assay: Growth inhibition of human U87 cells under normoxic condition; type: functional, cell-based, U-87MG ATCC
smiles,measurement,setting,value
OC[C@H]1OC(O)C[C@@H](O)[C@@H]1O (stereo not given in full),IC50,[1],< 1 mM
same,IC50,[2],< 1 mM
same,inhibition at 1000 µM,[3],93%
same,inhibition (INH),[4],7%
OC[C@H]1OC(O)C(F)(F)[C@@H](O)[C@@H]1O (stereo not given in full),Km,[5],130 µM
OC[C@H]1OC(O)[C@@H](F)[C@@H](O)[C@@H]1O (stereo not given in full),Km,[5],410 µM
OC[C@H]1OC(O)[C@H]([18F])[C@@H](O)[C@@H]1O (stereo not given in full) [FLUDEOXYGLUCOSE F 18],Drug uptake,[6],2.65%
same,Kp at 1 h,[7],22.1
OC[C@H]1OC(O)[C@H](O)[C@@H](O)[C@@H]1F (stereo not given in full),Km,[5],84000 µM
NC1C(O)OC(CO)[C@@H](O)[C@@H]1O (stereo not given in full),Ki,[8],0.7 mM
same,Ki,[9],0.3 mM
OC1C[C@H](O)[C@H](O)CO1 (stereo not given in full),Km,[5],590 µM
OC[C@H]1OC(O)[C@H](O)[C@@H](F)[C@@H]1O (stereo not given in full),Km,[5],70000 µM
CC(=O)Nc1c(I)c(C(=O)N[C@H]2C(O)O[C@H](CO)[C@@H](O)[C@@H]2O)c(I)c(N(C)C(C)=O)c1I (stereo not given in full) [METRIZAMIDE],Ki,[8],0.7 mM
same,Ki,[9],20 mM
OC[C@H]1OC(O)[C@H](F)[C@@H](O)[C@@H]1O (stereo not given in full),Km,[5],190 µM
CC(=O)OC[C@H]1OC(O)C[C@@H](OC(C)=O)[C@@H]1O (stereo not given in full),IC50,[10],1 mM
same,IC50,[11],1 mM
OC[C@H]1OC(O)[C@@H]([18F])[C@@H](O)[C@@H]1O (stereo not given in full),Drug uptake,[6],2.65%
same,Kp at 1 h,[7],29.4
